Laboratory results: ChEMBL document CHEMBL1201862, “PubChem BioAssay data set” (2004)
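All cell lines were grown in 96-well plates and treated with compound for 48 hours. At the GI50, growth is halved.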 Active and inactive are the calls of the source. No stated cut-off is given here; in the data, active = GI50 up to about 1.1 µM and inactive = higher.

Legend:
Assay in all cases: inhibition of tumour cell growth, NCI panel, 48 h
SNB-78 = tested on: SNB-78
XF498 = tested on: XF498
LXFL 529 = tested on: LXFL 529
HOP-18 = tested on: HOP-18
M19-MEL = tested on: M19-MEL
DMS-273 = tested on: DMS-273
KM-20L2 = tested on: KM-20L2
RXF 631 = tested on: RXF 631
DMS-114 = tested on: DMS-114

Measured: GI50

FC(F)(F)C1(Br)C(c2ccccc2)=C1c1ccccc1
inactive: SNB-78 25.8 µM | XF498 15.2 µM | LXFL 529 14.3 µM | HOP-18 16.5 µM | M19-MEL 15.6 µM | DMS-273 17.9 µM | KM-20L2 16.1 µM | RXF 631 22.6 µM | DMS-114 15.2 µM

CC(=O)Nc1ccc(C2C(C(=O)Nc3ccccc3)=C(C)NC(C)=C2C(=O)Nc2ccccc2)cc1
inactive: SNB-78 > 100 µM | XF498 > 100 µM | LXFL 529 > 64.9 µM | HOP-18 > 100 µM | M19-MEL > 100 µM | DMS-273 > 100 µM | KM-20L2 > 100 µM | DMS-114 35.7 µM

O=C1C2C(C(=O)N1c1ccccc1)C1c3ccccc3C2C2C(=O)N(c3ccccc3)C(=O)C21 (stereo not given)
inactive: LXFL 529 38.5 µM | HOP-18 > 100 µM | M19-MEL 39.5 µM | DMS-273 3.46 µM | KM-20L2 18.2 µM | DMS-114 3.08 µM

O=S1OC2(c3ccccc3-c3ccccc32)c2ccccc21 (stereo not given)
inactive: XF498 > 100 µM | LXFL 529 > 100 µM | HOP-18 > 100 µM | M19-MEL > 100 µM | KM-20L2 > 100 µM | DMS-114 > 100 µM

CC1OC(=O)C2CC3CCCCC3C(/C=C/C3CCCC(C)N3C)C12 (stereo not given)
inactive: SNB-78 > 22.5 µM | XF498 > 100 µM | LXFL 529 > 100 µM | HOP-18 > 100 µM | M19-MEL > 100 µM | DMS-273 > 100 µM | KM-20L2 79.8 µM | DMS-114 > 100 µM

O=C1C2=C(c3ccccc31)C(c1ccccc1Cl)NC(S)=N2 (stereo not given)
inactive: XF498 25.6 µM | LXFL 529 35.3 µM | M19-MEL 44.2 µM | DMS-273 68.7 µM | KM-20L2 74.3 µM

CCOC(=O)C(=O)Nc1c(CC)cccc1C(C)C
inactive: SNB-78 > 100 µM | XF498 > 100 µM | LXFL 529 > 100 µM | M19-MEL > 100 µM | DMS-273 > 100 µM | KM-20L2 > 100 µM

Clc1ccc2cccc3c2c1C1OC3c2ccccc21 (stereo not given)
inactive: SNB-78 > 100 µM | XF498 > 100 µM | LXFL 529 > 100 µM | HOP-18 > 100 µM | M19-MEL > 100 µM | DMS-273 > 100 µM | KM-20L2 78.9 µM | DMS-114 > 100 µM

CCCCCCCCCCCC[S+](C)C
inactive: SNB-78 5.2 µM | XF498 2.69 µM | HOP-18 4.97 µM | M19-MEL 1.45 µM | DMS-273 5.2 µM | KM-20L2 5.11 µM | DMS-114 2.5 µM

COC(=O)c1oc([N+](=O)[O-])c(-c2ccccc2)c1-c1ccccc1
inactive: SNB-78 > 100 µM | XF498 > 100 µM | LXFL 529 > 100 µM | HOP-18 > 100 µM | M19-MEL 36.8 µM | DMS-273 > 100 µM | KM-20L2 > 100 µM | RXF 631 > 100 µM | DMS-114 88.3 µM

N#Cc1c(N)c(C(=O)O)nn(-c2cccc(C(F)(F)F)c2)c1=O
inactive: SNB-78 > 100 µM | XF498 > 100 µM | LXFL 529 > 100 µM | HOP-18 29.2 µM | M19-MEL > 100 µM | KM-20L2 > 100 µM | RXF 631 > 100 µM

C=CCn1c2c(sc1=S)C(S)NC=N2 (stereo not given)
inactive: SNB-78 78.2 µM | XF498 > 100 µM | LXFL 529 > 100 µM | HOP-18 18.9 µM | M19-MEL > 100 µM | DMS-273 > 100 µM | KM-20L2 > 100 µM | DMS-114 43.7 µM

C=C1C(=O)OC2/C=C(\C=O)CC/C=C(\C)C(O)C[C@@H]12 (stereo not given in full)
inactive: SNB-78 4.24 µM | XF498 4.99 µM | LXFL 529 3.36 µM | HOP-18 16.9 µM | M19-MEL 5.45 µM | DMS-273 4.36 µM | KM-20L2 9.25 µM | DMS-114 11.7 µM
